34 molecules from patent US20250289789A1, “REVERSIBLE LYSINE COVALENT MODIFIERS OF CDK2 AND USES THEREOF” (Terremoto Biosciences, Inc., priority 2023, published 2025) can be followed below.

Bounds are passed on as bounds.

Holding throughout (type): cell-based
Experiment [1] has as its target T1, CDK4-NanoLuc fusion with CCND1 in 293T or 293 cells (Homo sapiens, UniProt P11802).
T1 construct: host or cells: 293T (ATCC CRL-3216) or 293 (ATCC CRL-1573)
Description: NanoBRET Target Engagement (TE) Intracellular Kinase Assay, CDK4/CCND1. Particulars: NanoBRET TE intracellular kinase assay, 2-hour incubation, read-out: NanoBRET-CDK4/D1 IC50. As for the experimental part:
(§1) Inhibitory effects of compounds were measured in NanoBRET TE Intracellular Kinase Assay. […] Cells were co-transfected with 1 μg/mL of CDK-NanoLuc Fusion Vector (Promega; NV2701 for CDK1, NV2781 for CDK2, NV2811 for CDK4, NV2841 for CDK6) and 1 μg/mL of the corresponding Cyclin Expression Vector (Promega; NV2601 for CCNB1, NV2641 for CCNE1, NV2621 for CCND1, NV2631 for CCND3) using FuGENE HD Transfection Reagent (Promega; E2311). […] 20 uL/well of 3× Intracellular TE Nano-Glo Substrate/Inhibitor (Promega; N2162) were added to 384-well plates and incubated for 3 minutes at room temperature. NanoBRET signals (donor emission wavelength at 450 nm, acceptor emission wavelength at 610 nm) were measured using Envision plate reader (PerkinElmer). NanoBRET ratio was calculated by: BRET Ratio=raw signal for acceptor/raw signal for donor. Dose response curve normalized to DMSO control was plotted using four-parameter logistic model for IC50 calculation.
A general note: BRET reads energy transfer from a luciferase to a nearby fluorophore.

Experiment [2] deals with T2, CDK2-NanoLuc fusion with CCNE1 in 293T or 293 cells (Homo sapiens, UniProt P24941).
T2 construct: host or cells: 293T (ATCC CRL-3216) or 293 (ATCC CRL-1573)
Description: NanoBRET Target Engagement (TE) Intracellular Kinase Assay, CDK2/CCNE1. To be noted: NanoBRET TE intracellular kinase assay, 2-hour incubation, read-out: NanoBRET-CDK2/E1 IC50. The procedure: as §1

Experiment [3] relates to Phospho-Rb Ser807/811 in OVCAR3 cells. Description: OVCAR3 Phospho-Rb Ser807/811 HTRF assay. To be noted: Homo sapiens, OVCAR-3, 1 h, OVCAR3 cells, Phospho-Rb Ser807/811 HTRF, 1 hour incubation; read-out: pRb-OVCAR3 IC50. As for the experimental part:
Cells were trypsinized and resuspended in 1 mM hydroxyurea (Sigma; H8627), 90% RPMI and 10% fetal bovine serum. […] Dose response curve normalized to DMSO control was plotted using four-parameter logistic model for IC50 calculation.

T1 sequence (P11802 whole entry, the tested form may be a part): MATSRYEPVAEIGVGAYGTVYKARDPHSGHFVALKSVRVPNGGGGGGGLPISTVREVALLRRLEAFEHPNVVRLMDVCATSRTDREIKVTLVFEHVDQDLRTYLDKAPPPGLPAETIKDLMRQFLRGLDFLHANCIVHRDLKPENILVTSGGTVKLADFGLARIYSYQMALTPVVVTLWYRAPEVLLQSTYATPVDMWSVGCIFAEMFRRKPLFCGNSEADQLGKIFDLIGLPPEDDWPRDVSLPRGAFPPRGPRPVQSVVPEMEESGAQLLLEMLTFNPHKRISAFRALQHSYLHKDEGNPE
T1 sequence (P24385 whole entry partner, the tested form may be a part): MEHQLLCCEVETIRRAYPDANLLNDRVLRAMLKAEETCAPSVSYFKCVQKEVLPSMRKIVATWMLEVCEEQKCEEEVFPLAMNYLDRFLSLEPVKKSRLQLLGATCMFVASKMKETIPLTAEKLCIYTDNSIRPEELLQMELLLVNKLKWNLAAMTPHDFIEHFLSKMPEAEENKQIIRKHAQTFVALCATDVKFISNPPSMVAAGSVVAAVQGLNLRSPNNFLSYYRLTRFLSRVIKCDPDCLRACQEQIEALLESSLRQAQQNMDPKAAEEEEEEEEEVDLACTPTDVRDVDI

In the case of `COc1cc(O)c(C=O)c(OCC(=O)Nc2cc([C@H]3CC[C@@H](OC(=O)NC[C@H]4CCO4)C3)[nH]n2)c1` [Compound 143], the IC50 is greater than 10000 nM in experiment [1], 13.1 nM in experiment [2] and 142 nM in experiment [3].

For the molecule `C#CCN(CC)C(=O)O[C@@H]1CC[C@H](c2cc(NC(=O)COc3cc(OC)cc(O)c3C=O)n[nH]2)C1` [Compound 144], the IC50 in experiment [1] was 2340 nM; in experiment [2], 2.36 nM; in experiment [3] it was 29 nM.

With `Cc1cc(O)c(C=O)c(OCC(=O)Nc2cc([C@H]3CC[C@@H](OC(=O)NC4(C)CC4)C3)[nH]n2)c1` [Compound 145], the IC50 in experiment [1] turned out to be 4070 nM; in experiment [2], 3.46 nM; in experiment [3], 64.3 nM.

On to `COc1cc(O)c(C=O)c(OCC(=O)Nc2cc([C@H]3CC[C@@H](OC(=O)NC4(CC#N)CC4)C3)[nH]n2)c1` [Compound 146], for which the values for the IC50 in experiment [1], in experiment [2] and in experiment [3] were 2380 nM, 9.88 nM and 40.9 nM, respectively.

Turning to `CCN(CC#N)C(=O)O[C@@H]1CC[C@H](c2cc(NC(=O)COc3cc(OC)cc(O)c3C=O)n[nH]2)C1` [Compound 147], the IC50 came to 2260 nM in experiment [1], 2.85 nM in experiment [2] and 13.8 nM in experiment [3].

With `COc1cc(O)c(C=O)c(OCC(=O)Nc2cc([C@H]3CC[C@@H](OC(=O)NC4(C#N)CCC4)C3)[nH]n2)c1` [Compound 148], the values for the IC50 in experiment [1], in experiment [2] and in experiment [3] were 4250 nM, 6.97 nM and 113 nM, respectively.

`COc1cc(O)c(C=O)c(OCC(=O)Nc2cc([C@H]3CC[C@@H](OC(=O)NC4COC4)C3)[nH]n2)c1` [Compound 149]: the values for the IC50 in experiment [1], in experiment [2] and in experiment [3] were greater than 10000 nM, 20.2 nM and 385 nM, respectively.

In the case of `COc1cc(O)c(C=O)c(OCC(=O)Nc2cc([C@H]3CC[C@@H](OC(=O)N[C@H]4C[C@@H](C)C4)C3)[nH]n2)c1` [Compound 150], the IC50 in experiment [1] came out at 3890 nM; in experiment [2], 2.27 nM; in experiment [3] it was 148 nM.

Consider `COc1cc(O)c(C=O)c(OCC(=O)Nc2cc([C@H]3CC[C@@H](OC(=O)N(C(C)C)C(C)C)C3)[nH]n2)c1` [Compound 151], for which the figures for the IC50 in experiment [1], in experiment [2] and in experiment [3] were 2890 nM, 3.47 nM and 36.1 nM, respectively.

`COc1cc(O)c(C=O)c(OCC(=O)Nc2cc([C@H]3CC[C@@H](OC(=O)N4CC[C@H](C#N)C4)C3)[nH]n2)c1` [Compound 152]: the IC50 was 6990 nM in experiment [1], 7.62 nM in experiment [2] and 30 nM in experiment [3].

As for `COc1cc(O)c(C=O)c(OCC(=O)Nc2cc([C@H]3CC[C@@H](OC(=O)N4CC(C#N)C4)C3)[nH]n2)c1` [Compound 153], the IC50 is greater than 10000 nM in experiment [1], 13.1 nM in experiment [2] and 49.7 nM in experiment [3].

As to `COc1cc(O)c(C=O)c(OCC(=O)Nc2cc([C@H]3CC[C@@H](OC(=O)N4[C@@H]5CC[C@H]4C[C@H](C#N)C5)C3)[nH]n2)c1` [Compound 154], the IC50 in experiment [1] turned out to be 2100 nM; in experiment [2], 7.73 nM; in experiment [3] it was 27.8 nM.

For `COc1cc(O)c(C=O)c(OCC(=O)Nc2cc([C@H]3CC[C@@H](OC(=O)N(C)CCC#N)C3)[nH]n2)c1` [Compound 155], the IC50 in experiment [1] worked out at 6300 nM; in experiment [2] it was 7.65 nM; in experiment [3], 23.5 nM.

For `COc1cc(O)c(C=O)c(OCC(=O)Nc2cc([C@H]3CC[C@@H](OC(=O)NCCCC#N)C3)[nH]n2)c1` [Compound 156], the values for the IC50 in experiment [1], in experiment [2] and in experiment [3] were greater than 10000 nM, 10.1 nM and 33.8 nM, respectively.

`COc1cc(O)c(C=O)c(OCC(=O)Nc2cc([C@H]3CC[C@@H](OC(=O)N4C[C@@H]5CC[C@H]4CO5)C3)[nH]n2)c1` [Compound 157]: the IC50 in experiment [1] amounted to 7000 nM; in experiment [2], 6.79 nM; in experiment [3], 70 nM.

Consider `COc1cc(O)c(C=O)c(OCC(=O)Nc2cc([C@H]3CC[C@@H](OC(=O)N4C[C@H]5CC[C@@H]4CO5)C3)[nH]n2)c1` [Compound 158], for which the IC50 is 3900 nM in experiment [1], 5.58 nM in experiment [2] and 24.4 nM in experiment [3].

Regarding `COc1cc(O)c(C=O)c(OCC(=O)Nc2cc([C@H]3CC[C@@H](OC(=O)NC(C)(C)C#N)C3)[nH]n2)c1` [Compound 159], the IC50 in experiment [1] is 4840 nM; in experiment [2], 10.6 nM; in experiment [3], 43.1 nM.

`COc1cc(O)c(C=O)c(OCC(=O)Nc2cc([C@H]3CC[C@@H](OC(=O)NN(C)C)C3)[nH]n2)c1` [Compound 160]: the IC50 in experiment [1] was greater than 10000 nM; in experiment [2], 7.35 nM; in experiment [3], 80.3 nM.

Consider `Cc1cc(O)c(C=O)c(OCC(=O)Nc2cc([C@H]3CC[C@@H](OC(=O)N4C5CCC4CC5)C3)[nH]n2)c1` [Compound 161], for which the IC50 is 7360 nM in experiment [1], 2.79 nM in experiment [2] and 68.6 nM in experiment [3].

As to `Cc1cc(O)c(C=O)c(OCC(=O)Nc2cc([C@H]3CC[C@@H](OC(=O)N4CCC4(C)C)C3)[nH]n2)c1` [Compound 162], the IC50 in experiment [1] was 3470 nM; in experiment [2], 3.09 nM; in experiment [3], 37.4 nM.

As to `COc1cc(O)c(C=O)c(OCC(=O)Nc2cc([C@H]3CC[C@@H](OC(=O)N[C@@H](C)CC#N)C3)[nH]n2)c1` [Compound 163], the figures for the IC50 in experiment [1], in experiment [2] and in experiment [3] were 6300 nM, 10.2 nM and 27.7 nM, respectively.

As for `COc1cc(O)c(C=O)c(OCC(=O)Nc2cc([C@H]3CC[C@@H](OC(=O)Nc4ccccc4)C3)[nH]n2)c1` [Compound 164], the IC50 in experiment [1] amounted to 5880 nM; in experiment [2], 9.6 nM; in experiment [3], 301 nM.

With `COc1cc(O)c(C=O)c(OCC(=O)Nc2cc([C@H]3CC[C@@H](OC(=O)Nc4ccncc4)C3)[nH]n2)c1` [Compound 165], the IC50 in experiment [1] was determined as 7920 nM; in experiment [2], 12.8 nM; in experiment [3] it was 383 nM.

For `COc1cc(O)c(C=O)c(OCC(=O)Nc2cc([C@H]3CC[C@@H](OC(=O)NCc4ccccn4)C3)[nH]n2)c1` [Compound 166], the results for the IC50 in experiment [1], in experiment [2] and in experiment [3] were greater than 10000 nM, 10.3 nM and 167 nM, respectively.

Take `COc1cc(O)c(C=O)c(OCC(=O)Nc2cc([C@H]3CC[C@@H](OC(=O)N[C@@H](C)CC(F)(F)F)C3)[nH]n2)c1` [Compound 167]: the IC50 in experiment [1] is 828 nM; in experiment [2], 2.8 nM; in experiment [3] it was 24.3 nM.

Turning to `CCC[C@H](C)NC(=O)O[C@@H]1CC[C@H](c2cc(NC(=O)COc3cc(OC)cc(O)c3C=O)n[nH]2)C1` [Compound 168], the IC50 is 3270 nM in experiment [1], 2.45 nM in experiment [2] and 29.2 nM in experiment [3].

For the molecule `CCN(C(=O)O[C@@H]1CC[C@H](c2cc(NC(=O)COc3cc(OC)cc(O)c3C=O)n[nH]2)C1)C(C)C` [Compound 169], the values for the IC50 in experiment [1], in experiment [2] and in experiment [3] were 773 nM, 2.27 nM and 22.9 nM, respectively.

As to `COc1cc(O)c(C=O)c(OCC(=O)Nc2cc([C@H]3CC[C@@H](OC(=O)NCc4ccccc4)C3)[nH]n2)c1` [Compound 170], the IC50 in experiment [1] came out at 6040 nM; in experiment [2], 3.06 nM; in experiment [3], 70.6 nM.

With `COc1cc(O)c(C=O)c(OCC(=O)Nc2cc([C@H]3CC[C@@H](OC(=O)N(OC)C(C)C)C3)[nH]n2)c1` [Compound 171], the IC50 in experiment [1] was greater than 10000 nM; in experiment [2], 3.24 nM; in experiment [3], 107 nM.

Turning to `COc1cc(O)c(C=O)c(OCC(=O)Nc2cc([C@H]3CC[C@@H](OC(=O)N(O)C(C)C)C3)[nH]n2)c1` [Compound 173], the IC50 worked out at 5340 nM in experiment [1], 3.99 nM in experiment [2] and 34.2 nM in experiment [3].

As to `COc1cc(O)c(C=O)c2c1C[C@@H](C(=O)Nc1cc([C@H]3CC[C@@H](OC(=O)NC(C)C)C3)[nH]n1)C2` [Compound 174, (1R,3S)-3-(3-((S)-4-formyl-5-hydroxy-7-methoxy-2,3-dihydro-1H-indene-2-carboxamido)-1H-pyrazol-5-yl)cyclopentyl isopropylcarbamate], the values for the IC50 in experiment [1], in experiment [2] and in experiment [3] were 668 nM, 3.26 nM and 10.7 nM, respectively.

Turning to `COc1cc(O)c(C=O)c(OCC(=O)Nc2cc([C@H]3CC[C@@H](OC(=O)NCCC(F)(F)F)C3)[nH]n2)c1` [Compound 175], the IC50 in experiment [1] was 8440 nM; in experiment [2], 2.11 nM; in experiment [3], 16.9 nM.

Regarding `COCC(C)(C)NC(=O)O[C@@H]1CC[C@H](c2cc(NC(=O)COc3cc(OC)cc(O)c3C=O)n[nH]2)C1` [Compound 176], the IC50 worked out at 3360 nM in experiment [1], 4.2 nM in experiment [2] and 57.4 nM in experiment [3].

Take `COCC[C@H](C)NC(=O)O[C@@H]1CC[C@H](c2cc(NC(=O)COc3cc(OC)cc(O)c3C=O)n[nH]2)C1` [Compound 177]: the IC50 in experiment [1] is greater than 10000 nM; in experiment [2], 3.17 nM; in experiment [3], 29.3 nM.
